Source: patent US8536152B2, “Methods of using diacerein as an adjunctive therapy for diabetes” (TWi Biotechnology, Inc., priority 2010, dated 2013)

How the values were obtained:
[1] = tested on: patients with type 2 diabetes inadequately controlled by current oral antidiabetic therapy; experiment: Randomized, double-blind, placebo-controlled study of add-on diacerein: glycosylated hemoglobin (HbA1c); assay type: in vivo, human
Text: Primary Endpoints: To compare the efficacy of add-on diacerein with no add-on treatment (placebo) on glycosylated hemoglobin (HbA1c) after 24-week double-blind treatment in type 2 DM patients inadequately controlled by previous antidiabetic therapy.
(§1) Subjects: Male or female type 2 DM patients (BMI≦35 kg/m^2) on a stable oral hypoglycemic […] for at least 3 months prior to screening visit. The hemoglobin A1c (HbA1c) measurements taken at a screening visit were between 7% and 12%. Patients enrolled in the study were receiving one or more oral antihyperglycemic agents including sulfonylurea, biguanides, alpha-glucosidase inhibitors, thiazolidinediones (TZDs) and nonsulfonylurea insulin secretagogues.
(§2) Procedure: This was a randomized, double-blind, parallel comparison study comparing 50 mg diacerein versus placebo in patients with type 2 DM inadequately controlled by previous antidiabetic therapy. The starting dose of diacerein was 50 mg once daily every morning for 4 weeks and could be adjusted up to 50 mg twice daily (morning and evening) if patients had become accustomed to the medication. Patients were screened for eligibility four weeks (week-4) prior to entry at baseline (week 0). During this 4-week screening period, the participants continued their previous antidiabetic therapy, dietary habits and other lifestyle habits. In order to be eligible for randomization following the 4-week screening period, patients must not have experienced hypoglycemia and must have had two fasting plasma glucose (FPG) measurements of between 135 to 250 mg/dL. At the end of the screening period, patients who met eligibility requirements were randomly assigned to receive diacerein 50 mg or placebo twice a day for 24 weeks observation. During treatment/observation period, the previous antidiabetic therapy including the class and/or dosage was not changed. Patients were asked to attend the center on eight occasions (screening, baseline, week 4, 8, 12, 16, 20 and 24) during the trial. The total study duration including the screening period for each patient was 28 weeks. There was a two weeks follow-up period after completion of the treatment/observation. […]
Statistical method(s) for efficacy/safety evaluations: The difference (diacerein minus placebo) of HbA1c reduction between the two treatment groups was analyzed by analysis of covariance (ANCOVA) with baseline value as covariate. The corresponding 95% confidence interval was calculated. Within-group changes were also analyzed, with paired t test used to evaluate differences from baseline in each treatment group.
For the efficacy parameters, descriptive statistics were presented by visit. […] The area under the concentration-time curve (AUC) was used for evaluating the parameters measured by oral glucose tolerance test. […]

[2] = tested on: patients with type 2 diabetes inadequately controlled by current oral antidiabetic therapy; experiment: Same clinical study: fasting plasma glucose; assay type: in vivo, human; conditions: at 24 weeks
Text: as §1
Procedure: This was a randomized, double-blind, parallel comparison study comparing 50 mg diacerein versus placebo in patients with type 2 DM inadequately controlled by previous antidiabetic therapy. The starting dose of diacerein was 50 mg once daily every morning for 4 weeks and could be adjusted up to 50 mg twice daily (morning and evening) if patients had become accustomed to the medication. Patients were screened for eligibility four weeks (week-4) prior to entry at baseline (week 0). During this 4-week screening period, the participants continued their previous antidiabetic therapy, dietary habits and other lifestyle habits. […]
(§3) For the efficacy parameters, descriptive statistics were presented by visit. […] The area under the concentration-time curve (AUC) was used for evaluating the parameters measured by oral glucose tolerance test.

[3] = tested on: patients with type 2 diabetes inadequately controlled by current oral antidiabetic therapy; experiment: Same clinical study: homeostatic model assessment (HOMA) beta cell function; assay type: in vivo, human
Text: as §1
as §2, with “weeks.” for “weeks. There was a two weeks follow-up period after completion of the treatment/observation.”
as §3

[4] = tested on: patients with type 2 diabetes inadequately controlled by current oral antidiabetic therapy; experiment: Same clinical study: cardiovascular safety endpoints (body weight, blood pressure, pulse rate, lipid profiles); assay type: in vivo, human; design: Total Cholesterol, Change / Triglyceride, Change / HDL, Change / LDL, Change: unit not given here
Text: as §1
(§4) Procedure: This was a randomized, double-blind, parallel comparison study comparing 50 mg diacerein versus placebo in patients with type 2 DM inadequately controlled by previous antidiabetic therapy. The starting dose of diacerein was 50 mg once daily every morning for 4 weeks and could be adjusted up to 50 mg twice daily (morning and evening) if patients had become accustomed to the medication. Patients were screened for eligibility four weeks (week-4) prior to entry at baseline (week 0). During this 4-week screening period, the participants continued their previous antidiabetic therapy, dietary habits and other lifestyle habits. In order to be eligible for randomization following the 4-week screening period, patients must not have experienced hypoglycemia and must have had two fasting plasma glucose (FPG) measurements of between 135 to 250 mg/dL. At the end of the screening period, patients who met eligibility requirements were randomly assigned to receive diacerein 50 mg or placebo twice a day for 24 weeks observation. During treatment/observation period, the previous antidiabetic therapy including the class and/or dosage was not changed. Patients were asked to attend the center on eight occasions (screening, baseline, week 4, 8, 12, 16, 20 and 24) during the trial. The total study duration including the screening period for each patient was 28 weeks. There was a two weeks follow-up period after completion of the treatment/observation. During this follow-up period, patients were followed for adverse events.
For the efficacy parameters, descriptive statistics were presented by visit. Statistical analysis was performed to assess the mean change from baseline. The area under the concentration-time curve (AUC) was used for evaluating the parameters measured by oral glucose tolerance test.

[5] = tested on: patients with type 2 diabetes inadequately controlled by current oral antidiabetic therapy; experiment: Same clinical study: adverse events; assay type: in vivo, human
Procedure: as §4
Adverse events were summarized according to the Medical Dictionary for Regulatory Activities (MedDRA) adverse event dictionary. The tabulations counted the number of patients reporting individual preferred term adverse events and the total number of patients reporting at least one adverse event per system organ class. If appropriate, the incidence of adverse events was compared for each of the two treatment groups using Fisher's Exact test.

[6] = tested on: type 2 (or type II) diabetes rodent models; conditions: type 2 diabetes rodent models; cited from earlier work
[7] = Week 24, N 28, in mg/dL (unit assumed)
[8] = Week 24, N 28, in mmHg (unit assumed)

## CC(=O)Oc1cccc2c1C(=O)c1c(OC(C)=O)cc(C(=O)O)cc1C2=O [diacerein, 4,5-bis(acetyloxy)-9,10-dioxo-2-anthracene carboxylic acid]
[1]; 24 weeks, P=0.0158
  between-group difference in HbA1c change (diacerein vs placebo): 0.63 percentage point
[1]; add-on diacerein 50 mg twice a day, 24 weeks, within group
  average absolute difference in HbA1c levels between baseline and 24 weeks (reduction): 0.63 percentage point
[1]; after 20 weeks, P=0.0223
  HbA1c absolute reduction versus the placebo group: 0.60%
[1]; at 24 weeks
  number of patients who had any reduction in HbA1c levels: 20 of 26
[2]
  fasting plasma glucose levels versus placebo group: consistently lower
[3]; over 24 weeks
  within-group change from baseline in HOMA-BETA: significant
[3]; over the course of treatment
  HOMA beta cell function (HOMA-BETA) course over treatment: continual improvement
[3]; week 24
  HOMA-BETA: 56.26
[4]; Week 24, N 28
  pulse rate, Mean ± SD: 77.18 ± 10.22
[4]; [7]
  HDL, Mean ± SD: 42.25 ± 10.40
  LDL, Mean ± SD: 91.64 ± 27.28
  Total Cholesterol, Mean ± SD: 164.61 ± 30.09
  Triglyceride, Mean ± SD: 159.18 ± 97.07
[4]; [8]
  Systolic blood pressure, Mean ± SD: 130.32 ± 16.85
  diastolic blood pressure, Mean ± SD: 78.86 ± 8.20
[4]; Week 24 vs baseline
  HDL, Change: −0.96 ± 10.27
  LDL, Change: −6.09 ± 19.75
  Systolic blood pressure, Change: −0.25 ± 14.38
  Total Cholesterol, Change: −8.46 ± 32.20
  Triglyceride, Change: −7.57 ± 98.79
  diastolic blood pressure, Change: −1.14 ± 8.78
  pulse rate, Change: 1.46 ± 9.00
[4]; adding diacerein to current anti-diabetic treatment
  risks of heart attack and cardiovascular disorders: did not increase
[4]; between baseline levels and levels at week 24, diacerein vs placebo
  differences between treatment groups in body weight, blood pressure, pulse rate and lipid profiles: no statistically significant differences
[5]; diacerein vs placebo
  difference between the two groups in the incidence of patients complaining of adverse events: No statistically significant difference
[5]; during the study period
  patients reporting at least one adverse effect (AE), number: 20 patients
  patients reporting at least one adverse effect (AE), percent: 54.1%
[5]; even in patients with a marked improvement in HbA1c levels
  symptomatic hypoglycemia: not observed

## O=C(O)c1cc(O)c2c(c1)C(=O)c1cccc(O)c1C2=O [Rhein, 9,10-dihydro-4,5-dihydroxy-9,10-dioxo-2-anthracenecarboxylic acid]
[6]
  blood glucose concentration control: control the blood glucose concentration
